Test results published in patent publication US20060111551A1, “Peptide having HTLV-1-specific CTL-inducing activity” (priority 2003, published 2006).

Tests used:
[1] = tested on: uncultured PBMC of recipient #37 and donor #36; assay: IFN-γ ELISPOT assay of uncultured PBMC; assay type: cell-based, human; conditions: overnight incubation with 10 μg/ml peptide, mean±SD of triplicate
From the text: IFN-γ producing antigen-specific T cells were counted using IFN-γ-specific ELISPOT assays as previously described (J. Immunol. Methods 191, 131-142, 1996; J. Exp. Med. 186, 859-865, 1997). […] After 10-min reaction with BICP/NBT alkaline phosphatase substrate (SIGMA), colored spots on the dried membranes were counted using a KS-ELISPOT microscopy system (Carl Zeiss, Jena, Germany).
It was next investigated whether there are any qualitative or quantitative differences in HTLV-I-specific CTL responses among pre-HSCT #37, post-HSCT #37, and donor #36. To examine HTLV-I-specific CTL precursor cell number without experimental biases by in vitro culture, frozen stored PBMC were immediately subjected to ELISPOT assay for IFN-γ production. The results of CTL precursor in the uncultured PBMC of recipient #37 and donor #36 responding to ILT-#37 or Tax epitope are shown in Table 1. […] Values represent the mean±SD of triplicate assays. Further, the results of ELISPOT assay of IFN-γ are shown by spot forming cells (SFC) per 10^5 PBMC.

[2] = tested on: CTL line of post-HSCT patient #37; conditions: LCL-#36 cells pulsed with 10 mM peptide; effector-to-target ratio 10; FIG. 3
Experimental: Values represent the mean of specific lysis of triplicate assays.
Cytotoxic activities were measured by 6-hour ^51Cr-release assay at various effector-to-target (E/T) cell ratios as described previously (J. Natl. Cancer Inst. 93, 1775-1783, 2001; J. Virol. 76, 7010-7019, 2002). Specific cytotoxicity was calculated as ([experimental ^51Cr release−spontaneous ^51Cr release]/[maximum ^51Cr release−spontaneous ^51Cr release]×100%).

[3] = tested on: CTL induced from post-HSCT patient R07; conditions: HLA-A24+ TOK cells pulsed with peptide; effector-to-target ratio 8; 18 hours; FIG. 5
Experimental: Following 18 hours of incubation, IFN-γ in the supernatant was measured by ELISA assay. Values represent the mean of duplicate assays.
IFN-γ production by the effector cells was measured by ELISA (Human IFN-γ ELISA Kit; Endogen, Woburn, Mass.) following 18 hours of incubation with target cells at various E/T ratios in duplicate.
Subsequently, epitope mapping of these CTL was performed. […] The present inventors stained these cultured PBMCs with the tetramer of HLA-A*2402/Tax301-309.

LLFEEYTNI [Tax307-315, synthetic oligopeptide of HTLV-I Tax]
IFN-γ-producing SFC/10^5 PBMC, Donor #36 ([1]; PBMC of donor #36): 1 ± 0.6 SFC/10^5 PBMC | IFN-γ-producing SFC/10^5 PBMC, Post-HSCT #37 ([1]; PBMC of post-HSCT patient #37): 2 ± 1 SFC/10^5 PBMC | IFN-γ-producing SFC/10^5 PBMC, Pre-HSCT #37 ([1]; PBMC of pre-HSCT patient #37): 18 ± 2 SFC/10^5 PBMC

MAHFPGFGQSLLFGYPVYVFGDCV [Tax1-24]
killing of peptide-pulsed LCL-#36 cells by CTL line of post-HSCT patient #37 [2]: selectively killed

SFHSLHLLFEEYTNI [Tax301-315]
reaction with responder cells (IFN-γ production against peptide-pulsed TOK cells) [3]: selectively reacted
